Consider three compounds from patent publication US9597295B2, “Diene compounds for use in human epidermal cell repair, and pharmaceutical and cosmetic compositions containing them” (GIULIANI S.P.A., priority 2009, dated 2017).

Data set [1] has as its system IL-1α. Nature of the data set: IL-1α quantification in the growth medium using ELISA. The note with it: RHE growth medium, 0.1% single dose, after 24 h. The format is cell-based, human. Here is the method: The release of IL-1α was assayed in 200 μl of the growth medium underneath the RHE at preset sampling times using a highly-sensitive, specific ELISA (enzyme-linked immunosorbent assay) kit according to the manufacturer's instructions. The end-product was quantified at 450 nm.
The underlying growth medium for each RHE was collected immediately after the recovery time and stored at −20° C. in plastic cryo-vials.
Before the test, the medium was conditioned at room temperature. The results were expressed as pg/ml of IL-1α. Concentrations between 3.9 and 250 pg/ml were considered within the range of sensitivity.
Background: ELISA stands for enzyme-linked immunosorbent assay.

Data set [2] concerns reconstructed human epidermis (RHE). Briefly: H&E histology of reconstructed human epidermis. Type of data set: cell-based. The note with it: single acute administration at 0.1%. An excerpt: (§1) The RHE (SkinEthic®) 0.5 cm^2, which reproduces the morphology of the epidermis, was accurately characterised: a fully-differentiated epidermis develops after 17 days of airlift culture of NHK (normal human keratinocytes) from skin biopsies in a given medium (MCDB153).
At the end of the study period, the tissues were washed with PBC, fixed in 10% buffered formalin and prepared for histological examination.
The tissue was embedded in paraffin blocks and cut into sections (3-5μ thick) on a microtome. The sections were then transferred to slides, deparaffinised and rehydrated, then stained with haematoxylin and eosin (H&E).
The samples for histology were analysed under the microscope. The overall morphology and any changes by comparison with the negative controls were assessed and recorded in the laboratory report.
The samples for histology were analysed under the Leica microscope DM2500 and recorded using the Leica Application Suite (LAS) software.

The subject of data set [3] is cK-19 (KRT19) mRNA. Briefly: cK-19 mRNA expression by real-time PCR in reconstructed human epidermis. Type of data set: cell-based. Conditions: RHE, single 20 μl dose at 0.1%. How it is done: as §1
(§2) On arrival, the RHE (day 11) were removed from the agarose nutrient solution under a flow of sterile air. The inserts were rapidly plated in six-well plates previously filled with 1 ml of growth medium each at 37° C., […], and 90% relative humidity, taking care to avoid any formation of bubbles underneath the insert.
The substances tested were solubilised in DMSO (Sigma) to obtain a final concentration of 0.2%.
This stock solution was diluted in PBS to achieve the 0.1% of active principle.
The solution was applied with care to each tissue using a micro-pipette in a single dose of 20 μl.
The method is based on the capacity of the glass fibres to bind the nucleic acid in chaotropic concentrated saline solutions. The samples are disrupted in a highly-concentrated solution of guanidinium salts that lyse the cells and inactivate the endogenous RNase. The lysate is diluted with ethanol to make the […] competent for binding with the glass fibre of the filter in the filter cartridge. The RNA binds to the filter, while the other cell components slide freely through the filter. The filter is then washed three times and the RNA is eluted in a solution with a very low ionic strength.
The rationale in this method is based on the use of random primers to begin cDNA synthesis that ensure an efficient synthesis of the first helix of all the RNA molecules present.
(§3) The “Applied Biosystems 7500 real-time PCR” instrument uses PCR chemistry based on fluorescence, the TaqMan assay.
This technique uses Taqman probes to identify the fluorescent signal: it is highly sensitive and consists in amplifying and quantifying a specific nucleic acid sequence. The PCR product is detected in real time. The DNA, cDNA or RNA are quantified by determining the cycle in which the PCR product can be identified first, and therefore not when the reaction has reached saturation. The product is quantified by detecting the fluorescence measured in each cycle: the entity of the signal is directly proportional to the quantity of product amplified.
The relative quantification is measured from the difference between the expression of the nucleic acid sequence of a sample being tested and the same sequence in the calibration sample.
Each biological sample was processed in triplicate. The Taqman gene expression assay and cDNA (25 ng) were added to the “2× TaqMan Universal PCR Master Mix”, making up to a total volume of 25 μl.
The tissues were homogenised in 300 μl of lysis buffer for […] extraction.
On day 1, the RHE were 12 days old. The substances being tested (in duplicate) and the controls were applied in a single dose (20 μl). The RHE were then incubated without further treatment for 24 hours.
Background: In qPCR the cycle at which signal appears reflects the starting amount.

Data set [4] relates to cK-10. Nature of the data set: cK-10 immunohistochemical expression in the RHE (separate study). The format is cell-based, human. The note with it: day 17 of differentiation, versus untreated controls. An excerpt: Finally, in a separate study conducted using similar methods, the expression of cK-10 in the RHE was studied on days 15 and 17 of differentiation, recorded by its immunohistochemical expression. cK-10 is a marker of the terminal differentiation of the keratinocytes at granular and spinal level.

For data set [5], the system named is cK-14 (KRT 14) mRNA. Nature of the data set: cK-14 mRNA expression by real-time PCR in reconstructed human epidermis. Type of data set: cell-based. Conditions: RHE, 0.1%, during the whole study, by comparison with the controls. Here is the method: as §1, §2
The substances tested were solubilised in DMSO (Sigma) to obtain a final concentration of 0.2%. […]
as §3
This technique uses Taqman probes to identify the fluorescent signal: it is highly sensitive and consists in amplifying and quantifying a specific nucleic acid sequence. The PCR product is detected in real time. The DNA, cDNA or RNA are quantified by determining the cycle in which the PCR product can be identified first, and therefore not when the reaction has reached saturation. The product is quantified by detecting the fluorescence measured in each cycle: the entity of the signal is directly proportional to the quantity of product amplified. […]

Setting [6] is: 24 hours of treatment, day 13, calibrated to DMSO controls.
[7] abbreviates: 48 hours of treatment, day 15, by comparison with the PBS control.
The mark [8] stands for this setting: 120 hours of treatment, day 17 (final differentiation), by comparison with the controls.

SMILES strings stand for the structures.

For `C/C=C/C=C/C=C/CO` [PRT, 2E,4E,6E-Octatrien-1-ol], the “release of IL-1α” value in data set [1] is “no such release”. In addition, in data set [2], the “toxicity (histomorphological analysis, cK-16 expression, IL-1α release)” value was “toxicity similar for retinol and 2,4,6-octatrien-1-ol”.

In the case of `C/C=C/C=C/C=C/C(=O)OCC` [DPRT, 2E,4E,6E-Octa-2,4,6-trienoic acid ethyl ester], the “release of IL-1α” value in data set [1] is on record as “no such release”. Moreover, the “cK-19 mRNA gene expression” value in data set [3] (setting [6]) is “much diminished”; in data set [3] (setting [7]) it was “not diminished”; in data set [3] (setting [8]), “up-regulation”. Further, the “toxicity (histomorphological analysis, cK-16 expression, IL-1α release)” value in data set [2] is recorded as “no relevant signs of toxicity”.

`CC1=C(/C=C/C(C)=C/C=C/C(C)=C/CO)C(C)(C)CCC1` [RET, Retinol]: the “release of IL-1α” value in data set [1] is “early but very low release”. Moreover, in data set [4], the cK-10 immunohistochemical expression result is “negative”. For the same compound, the “cK-19 mRNA gene expression” value in data set [3] (setting [6]) was “regulation level resembling the values of the calibrator”; in data set [3] (setting [7]), “diminished”; in data set [3] (setting [8]), “up-regulation”. The “toxicity (histomorphological analysis, cK-16 expression, IL-1α release)” value in data set [2] is “toxicity similar for retinol and 2,4,6-octatrien-1-ol”. In data set [5], the “cK-14 expression (marker of mitotic activity)” value is on record as “did not differ significantly”.
